From paper PMC3850926, “Evaluation of the adverse event profile and pharmacodynamics of toceranib phosphate administered to dogs with solid tumors at doses below the maximum tolerated dose” (BMC Veterinary Research, 2013)
Where two headings read alike, the source gives them in different places.

Key:
solid tumors = test: Tumor response assessment (RECIST v.1.1); format: in vivo, dog
Protocol: (§1) A total of 40 dogs were enrolled in this study, with dogs initially assigned to toceranib at 2.5 mg/kg or 2.75 mg/kg EOD. All dogs were placed on famotidine at 0.5-1 mg/kg once per day at study initiation and owners were instructed to administer the toceranib in the morning with food. Physical examination, routine bloodwork (CBC, biochemistry profile) and blood sampling for assessment of toceranib and VEGF plasma concentrations was performed pretreatment and on days 0, 7, 14 and 30 of treatment. […] Owners of dogs that experienced CR, PR, or SD at study day 30 were offered the option of continuing toceranib administration for an additional 6 months (provided at no cost), although patient data was not officially captured beyond day 30.
Tumor assessments were performed on days 0, 7, 14 and 30 of study. Tumor assessment was performed using caliper measurement with digital photography documentation, thoracic radiography, ultrasonography, or spiral computerized tomography (CT) as indicated. Determination of antitumor efficacy was based on objective tumor assessments made according to the RECIST v.1.1 guidelines using unidimensional measurements. Response to therapy was defined as complete response (CR, resolution of all target and non-target lesions, no new lesions), partial response (PR, at least 30% decrease in the longest diameter of target lesions, no progression of non-target lesions, and no new lesions), stable disease (SD, decrease in target lesions of less than 30% or increase of target lesions less than 20%, no progression of non-target lesions, and no new lesions) or progressive disease (PD, greater than 20% increase in target lesions, progression of non-target, new lesions). Dogs were defined as experiencing clinical benefit if they had CR, PR, or SD.

[1] = Toceranib plasma concentrations (LC-MS/MS) in dogs with solid tumors; format: in vivo, dog; conditions: for Cmax: dog, plasma, oral
Protocol: as §1
Blood was collected into EDTA tubes and centrifuged at 3000 × g for 10 minutes. Plasma was then collected and split evenly into two portions in cryovials, then stored at -80°C until analysis was performed for toceranib and VEGF concentrations.
Toceranib was quantitated in plasma samples using the method previously described. Briefly, 50 μL aliquots of plasma were fortified with an internal standard (IS), a deuterated toceranib analog. Toceranib and the IS were extracted from the plasma by protein precipitation using acetonitrile. The analyte and IS are light sensitive and undergo photoisomerization when exposed to light. Therefore, the 96-well plates were protected from light by wrapping the bottom and sides with foil and securing with adhesive tape. Calibration standards (1 to 1000 ng/mL) and quality control (QC) samples were prepared with separate weighing of toceranib reference material (Pfizer, Kalamazoo, MI, 98.1% purity). Standard and QC solutions were prepared by serially diluting a stock solution (100 μg/mL in methanol) into control canine plasma so that no standard or QC sample contained more that 1% methanol. Study samples were analyzed as single replicates.
The prepared samples were injected onto a Zorbax StableBond CN column and elution of toceranib and the IS accomplished with an acetonitrile:15 mM ammonium formate solution (pH 3.25) 30/70 v/v mobile phase with a 80/20 v/v rinse for 2.3 minutes at 5 minutes after each injection. Detection was accomplished using MS/MS using a Sciex 4000 triple-quadrupole mass spectrometer with Turboionspray ionization source (MDS Sciex, Toronto, Canada). Transition ions of m/z 397.2 → 283.2 for toceranib and 401.3 → 283.2 for the IS were used. The standard curves were generated using peak area ratios of toceranib to the IS and a 1/concentration^2 weighted quadratic regression. Toceranib concentrations were determined by interpolation over the quantitation range of 1.00 ng/mL to 1000 ng/mL.

[2] = test system: dogs with a variety of tumors; set-up: method as in PMID 12855656; conditions: cited from earlier work
KIT = conditions: dogs with MCT, 8 hours post drug administration; cited from earlier work
[3] = cited from earlier work
dogs with MCT = conditions: dog, in vivo, cited from earlier work

Cc1[nH]c(/C=C2\C(=O)Nc3ccc(F)cc32)c(C)c1C(=O)NCCN1CCCC1 [toceranib, Toceranib phosphate]
average time dogs remained on toceranib after day 30 (solid tumors; 35 of the 40 dogs): 16.7 weeks | PD (number of dogs) (solid tumors; Nasal carcinoma, N 5): 2 | PR (number of dogs) (solid tumors; Salivary gland adenocarcinoma, N 1): 1 | PD (number of dogs) (solid tumors; Soft tissue sarcoma, N 7): 2 | PR (number of dogs) (solid tumors; Squamous cell carcinoma, N 4): 2 | PR (number of dogs) (solid tumors; Thyroid carcinoma, N 7): 2 | clinical benefit (number of dogs) (solid tumors; over 30 days): 36/40 | PD (number of dogs), all tumor types (solid tumors; over 30 days, 40 dogs): 4 dogs | PD (percent of dogs) (solid tumors; over 30 days, 40 dogs): 10% | PR (number of dogs), all tumor types (solid tumors; over 30 days, 40 dogs): 5/40 | PR (percent of dogs) (solid tumors; over 30 days, 40 dogs): 12.5% | overall clinical benefit rate (CR + PR + SD) (solid tumors; over 30 days, 40 dogs): 90% | dogs that transitioned from SD to PR after day 30 (solid tumors; thyroid carcinoma): one | dogs that transitioned to CR after day 30 (solid tumors; two SCC and one salivary gland adenocarcinoma): 3 dogs | course of presumed Cmax plasma concentration ([1]; EOD regimen, levels out by day 30): increased gradually in most dogs over the first 2 weeks of dosing | dogs with Cmax at 12 hours (number) ([1]; day 30): 12 dogs | reported Cmax as percent of the 12 hour concentration ([1]; day 30, the 12 dogs with Cmax at 12 hours): 51% to 98% | Cmax ([1]; all dose ranges above 2.4 mg/kg, days 0, 7, 14, 30, read-out: median Cmax): > 40 ng/mL | Cmax ([1]; dose ranges 2.4-2.9 mg/kg EOD, by day 30, read-out: mean presumed Cmax): 100 to 200 ng/mL | Median plasma concentration measured at 6 or 8 hours, level after first two weeks ([1]; dogs dosed 2.4-2.9 mg/kg EOD): 100 to 120 ng/mL | difference among dosing groups in 6 or 8 hour drug concentrations (presumed Cmax) ([1]; dogs dosed 2.4-2.9 mg/kg, each time point): no significant difference | plasma drug concentration relative to the other dose groups ([1]; dogs dosed at 2.30-2.39 mg/kg (3 dogs)): lower concentrations of drug at all time points | average 6–8 hr plasma concentration ([1]; dogs with solid tumors, 2.4-2.9 mg/kg every other day): 100 to 120 ng/mL | complete responses, CR (number of dogs) ([2]; 2.5 mg/kg EOD, 16 dogs): 4 | objective response (number of dogs) ([2]; 2.5 mg/kg EOD, 16 dogs): 6 dogs | objective response (percent) ([2]; 2.5 mg/kg EOD, 16 dogs): 37.5% | partial responses, PR (number of dogs) ([2]; 2.5 mg/kg EOD, 16 dogs): 2 | stable disease, SD (number of dogs) ([2]; 2.5 mg/kg EOD, 16 dogs): 5 dogs | CR (number of dogs) ([2]; 3.25 mg/kg EOD, 20 dogs): 2 | PR (number of dogs) ([2]; 3.25 mg/kg EOD, 20 dogs): 6 | objective response (number of dogs) ([2]; 3.25 mg/kg EOD, 20 dogs): 8 | lowest plasma concentration with intratumoral target modulation (downregulation of KIT and/or ERK phosphorylation) (KIT): 30 ng/mL | dose proportionality of Cmax ([3]; healthy beagle dogs): proportional to doses ranging from 2.0 to 6.0 mg/kg | time of maximum drug concentration (Tmax) ([3]; previous studies): 5.3 to 9.3 h | time of Cmax post drug administration ([3]; prior studies): 6 to 8 h | dogs with dose changed (drug holiday and/or dose reduction) (dogs with MCT; 3.25 mg/kg): 48.3% | dogs that had a dose reduction due to AEs (dogs with MCT): approximately 20%
